According to patent US10590101B2, “Benzo-N-hydroxy amide compounds having antitumor activity” (ITALFARMACO SPA, priority 2016, dated 2020):
Where two headings read alike, the source gives them in different places.

Legend:
[1] = system: HCT116 cells; experiment: Cytotoxicity in vitro, HCT116 (CellTiter 96 Aqueous One Solution); assay type: cell-based, human; conditions: for IC50: Homo sapiens, HCT-116, 72 h incubation
Excerpt: The compounds of the present invention are small molecules of formula (I), characterised by the presence of a metal chelating moiety, the benzohydroxamate, an α-aminoacidic N-acylated central core and an α,β-unsaturation at the acyl-moiety. This particular structural feature seems responsible for the high inhibitory activity on cancer stem cell lines and on HCT116 cells (ATCC CCL-247), a human colorectal carcinoma cell line widely used in cancer biology both in vitro and in vivo (Botchkina Cancer Genom Proteom 6, 19-30, 2009; Yeung PNAS 107, 3722-3727, 2010).
(§1) The cytotoxicity activity was evaluated as follows: • Pre-B leukemia cell line 697 was seeded at 2×10^5 c/well; • Colon carcinoma cell lines HCT116, HT29 and COLO2015 were seeded at 4×10^3, 4×10^3 and 10×10^3 c/well respectively; • Primary human kidney cells were seeded at 1.5×10^3 and 6.5×10^3 in two separate experiments; • Human PBMC were seeded at 5×10^5 c/well; • Colon cancer stem cells (CSC) were seeded at 3×10^3;
(§2) Testing compounds were added after 24 h and incubated for 72 h (48 h for 697 cell line). The concentrations of molecules ranged from 10000 nM to 1.5 nM (10000 to 1 nM for 697 cell line). The cytotoxic activity of compounds was evaluated using the CellTiter 96® Aqueous One Solution Cell Proliferation Assay (Promega) which measures the functionality of mitochondria according to manufacturer's instructions. For Colon cancer stem cells viability was determined with CellTiter-Glo Luminescent cell viability assay (Promega).
(§3) The activity of compounds at any dose is calculated as percentage of inhibition versus vehicle-treated control (=0). The IC50s are extrapolated from the inhibition dose/response curve using GraphPad Prism program.

[2] = system: Pre-B leukemia cell line 697; experiment: Primary cytotoxicity screening, 697 cell line (CellTiter 96); assay type: cell-based; conditions: Table 1; 48 h incubation; read-out: CyTox697
Protocol: as §1, §2, §3

[3] = system: Colon cancer stem cells (CSC) CSC1; experiment: Cytotoxicity in vitro, colon cancer stem cells CSC1 (CellTiter-Glo); assay type: cell-based; conditions: 72 h incubation
Protocol: as §1, §2, §3

[4] = system: Colon cancer stem cells (CSC) CSC3; experiment: Cytotoxicity in vitro, colon cancer stem cells CSC3 (CellTiter-Glo); assay type: cell-based; conditions: 72 h incubation; read-out: CSC3 IC 50
Protocol: as §1, §2, §3

[5] = system: Colon cancer stem cells (CSC) CSC2; experiment: Cytotoxicity in vitro, colon cancer stem cells CSC2 (CellTiter-Glo); assay type: cell-based; conditions: 72 h incubation; read-out: CSC2 IC 50
Protocol: as §1, §2, §3

[6] = system: HCT116 xenograft; experiment: Antitumor activity in vivo, sc xenograft model of colon cancer; set-up: species or system CD1 nude female mice; conditions: ip
Protocol: Female CD-1 nude mice, 5 weeks of age and 20 to 22 g of weight, were housed in the animal house of the Italfarmaco Research Centre. Mice were maintained in micro isolator cages and supplied with sterile food and water under standard conditions.
Xenografts were generated by sc injection of 7×10^6 HCT116 cells in the right flank of the animals.
Tumor sizes were determined by caliper measurements and tumor volumes were calculated according to the following formula: Tumor volume (mm^3)=(w2×1)/2 where “w” is the width and “l” is the length of the carcinoma in mm.
Tumor growth was followed by volume measurement three times a week.
Tumor mass reached a measurable size three weeks after transplantation, at this time, treatments began.
Two reference compounds were also used in the experiment. The cinnamic hydroxamic acid panobinostat and 5-FU. The compounds were administered at the MTD according to previous experiments or as described in the literature.

[7] = system: HT29 colon cancer cell line; experiment: Cytotoxicity in vitro, HT29 (CellTiter 96); assay type: cell-based; conditions: Homo sapiens, HT-29; 72 h incubation; read-out: HT29 IC 50
Protocol: as §1, §2
(§4) The compound cytotoxicity was confirmed by further assays on two other colon cancer cell lines HT29 (ATCC HTB38) and Colo205 (ATCC CCL222) and on colon cancer stem cells (CSCs) (see table 2 and 3). It is worth noting that cytotoxic activity toward human primary kidney cells and peripheral blood mononuclear cells (PBMC) isolated from healthy donors was lower compared to tumor cells cytotoxicity (see table 4).
as §3

[8] = system: COLO205 colon cancer cell line; experiment: Cytotoxicity in vitro, COLO205 (CellTiter 96); assay type: cell-based; conditions: Homo sapiens, COLO 205; 72 h incubation; read-out: COLO205 IC 50
Protocol: as §1, §2, §4, §3

[9] = system: Primary human kidney cells; experiment: Cytotoxicity in vitro, primary renal cells (CellTiter 96); assay type: cell-based
Protocol: as §1, §2, §4, §3

[10] = system: Human PBMC; experiment: Cytotoxicity in vitro, PBMC from healthy donors (CellTiter 96); assay type: cell-based
Protocol: as §1, §2, §4, §3

[11] = Force degradation test (chemical stability); assay type: physicochemical
[12] = Table 2, read-out: HCT-116 IC 50
[13] = Renal.ep1, 72 h incubation, read-out: Renal.ep1 IC 50
[14] = Renal.ep2, 72 h incubation, read-out: Renal.ep2 IC 50
[15] = PBMC 1, 72 h incubation, read-out: PBMC 1 IC 50
[16] = PBMC 2, 72 h incubation, read-out: PBMC 2 IC 50

SMILES	IC50 ([1]; Table 1, read-out: HCT116) [nM]	IC50 [2] [nM]	IC50 ([3]; Table 1, read-out: CSC1) [nM]	also measured
COc1ccc(C[C@H](NC(=O)c2ccc3c(c2)OCO3)C(=O)Nc2ccc(C(=O)NO)cc2)cc1	24	21	24	
COc1ccc(C[C@H](NC(=O)Cc2ccc3c(c2)OCO3)C(=O)Nc2ccc(C(=O)NO)cc2)cc1	554	168	280	
COc1ccc(C[C@H](NC(=O)CCc2ccc3c(c2)OCO3)C(=O)Nc2ccc(C(=O)NO)cc2)cc1	702	496	400	
COc1ccc(C[C@H](NC(=O)c2ccccc2)C(=O)Nc2ccc(C(=O)NO)cc2)cc1	76	54	48	
COc1ccc(C[C@H](NC(=O)Cc2ccccc2)C(=O)Nc2ccc(C(=O)NO)cc2)cc1	316	72	160	
COc1ccc(C[C@H](NC(=O)CCc2ccccc2)C(=O)Nc2ccc(C(=O)NO)cc2)cc1	431	53	136	
COc1ccc(C[C@H](NC(=O)COc2ccccc2)C(=O)Nc2ccc(C(=O)NO)cc2)cc1	194	44		
O=C(NO)c1ccc(NC(=O)[C@H](Cc2ccccc2)NC(=O)c2ccc3c(c2)OCO3)cc1	79	18		
O=C(Cc1ccc2c(c1)OCO2)N[C@@H](Cc1ccccc1)C(=O)Nc1ccc(C(=O)NO)cc1	1070	127	208	
O=C(CCc1ccc2c(c1)OCO2)N[C@@H](Cc1ccccc1)C(=O)Nc1ccc(C(=O)NO)cc1	900	203	336	
O=C(NO)c1ccc(NC(=O)[C@H](Cc2ccccc2)NC(=O)c2ccccc2)cc1	184	105	96	
O=C(Cc1ccccc1)N[C@@H](Cc1ccccc1)C(=O)Nc1ccc(C(=O)NO)cc1	237	90	192	
O=C(CCc1ccccc1)N[C@@H](Cc1ccccc1)C(=O)Nc1ccc(C(=O)NO)cc1	806	770	332	
O=C(COc1ccccc1)N[C@@H](Cc1ccccc1)C(=O)Nc1ccc(C(=O)NO)cc1	466	59	424	
COc1ccc(C[C@H](NC(=O)/C=C/c2ccc3c(c2)OCO3)C(=O)Nc2ccc(C(=O)NO)cc2)cc1 [Compound 1D, (2S)-2-[[(E)-3-(1,3-benzodioxol-5-yl)prop-2-enoyl]amino]-N-[4-(hydroxycarbamoyl)phenyl]-3-(4-methoxyphenyl)propanamide]				IC50 [4]: 85 nM; IC50 [5]: 114 nM; IC50 [1, 12]: 18 nM; % inhib tumor vs CTRL after 44 days of treatment ([6]; 0.5 mg/kg): 23%; % inhib tumor vs CTRL after 44 days of treatment ([6]; 1 mg/kg): 22%; IC50 [7]: 157 nM; IC50 [8]: 146 nM; IC50 [9, 13]: 462 nM; IC50 [9, 14]: 321 nM; IC50 ([3]; Table 3, read-out: CSC1 IC 50): 19 nM; IC50 [10, 15]: 80 nM; IC50 [10, 16]: 152 nM
COc1ccc(C[C@H](NC(=O)/C=C/c2ccccc2)C(=O)Nc2ccc(C(=O)NO)cc2)cc1 [Compound 2D, (2S)—N-[4-(hydroxycarbamoyl)phenyl]-3-(4-methoxyphenyl)-2-[[(E)-3-phenylprop-2-enoyl]amino]propanamide]				IC50 [4]: 70 nM; IC50 [5]: 100 nM; IC50 [1, 12]: 14 nM; % inhib tumor vs CTRL after 44 days of treatment ([6]; 1 mg/kg): 33%; IC50 [7]: 61 nM; IC50 [8]: 73 nM; IC50 ([3]; Table 3, read-out: CSC1 IC 50): 50 nM; IC50 [10, 15]: 89 nM; IC50 [10, 16]: 42 nM
O=C(/C=C/c1ccc2c(c1)OCO2)N[C@@H](Cc1ccccc1)C(=O)Nc1ccc(C(=O)NO)cc1 [Compound 4D, (2S)-2-[[(E)-3-(1,3-benzodioxol-5-yl)prop-2-enoyl]amino]-N-[4-(hydroxycarbamoyl)phenyl]-3-phenyl-propanamide]				IC50 [4]: 91 nM; IC50 [5]: 102 nM; IC50 [1, 12]: 19 nM; % inhib tumor vs CTRL after 44 days of treatment ([6]; 5 mg/kg): 54%; % inhib tumor vs CTRL after 44 days of treatment ([6]; 10 mg/kg): 39%; IC50 [7]: 215 nM; IC50 [8]: 201 nM; IC50 [9, 13]: 778 nM; IC50 ([3]; Table 3, read-out: CSC1 IC 50): 13 nM; IC50 [10, 15]: 359 nM; IC50 [10, 16]: 601 nM
O=c1[nH]cc(F)c(=O)[nH]1 [Compound 5-FU, 5-FU, reference compound]				% inhib tumor vs CTRL after 44 days of treatment ([6]; 10 mg/kg): 36%; % inhib tumor vs CTRL after 44 days of treatment ([6]; 70 mg/kg, once a week): 61%
O=C(/C=C/c1ccccc1)N[C@@H](Cc1ccccc1)C(=O)Nc1ccc(C(=O)NO)cc1 [Compound 5D, (2S)—N-[4-(hydroxycarbamoyl)phenyl]-3-phenyl-2-[[(E)-3-phenyl-2-enoyl]amino]propanamide]				IC50 [4]: 230 nM; IC50 [5]: 102 nM; IC50 [1, 12]: 14 nM; % inhib tumor vs CTRL after 44 days of treatment ([6]; 5 mg/kg): 46%; IC50 [7]: 197 nM; IC50 [8]: 221 nM; IC50 [9, 13]: 1060 nM; IC50 [9, 14]: 511 nM; IC50 ([3]; Table 3, read-out: CSC1 IC 50): 26 nM; IC50 [10, 15]: 147 nM; IC50 [10, 16]: 595 nM
O=C(/C=C\c1ccccc1)N[C@@H](Cc1ccccc1)C(=O)Nc1ccc(C(=O)NO)cc1 [Compound 5DZ, (S,Z)—N-hydroxy-4-(3-phenyl-2-(3-phenylacrylamido)propanamido)benzamide]				stability at high temperatures ([11]; 15 days at 80° C.): little less stable; stability at low pH ([11]; 15 days at pH 2): definitely less stable; chemical stability compared with the trans ([11]; cis-form vs trans): chemically less stable; potency on HCT116 cells compared with the trans-form ([1]; cis-form vs trans-form): less potent
Cc1[nH]c2ccccc2c1CCNCc1ccc(/C=C/C(=O)NO)cc1 [Panobinostat, panobinostat, reference compound]				% inhib tumor vs CTRL after 44 days of treatment ([6]; 1 mg/kg): 34%
COc1ccc(C[C@H](NC(=O)/C=C/c2ccc3c(c2)OCO3)C(=O)Nc2ccc(C(=O)NO)cc2)cc1 [drawing 46]	18	3	192	
COc1ccc(C[C@H](NC(=O)/C=C/c2ccccc2)C(=O)Nc2ccc(C(=O)NO)cc2)cc1 [drawing 50]	13	22	40	
O=C(/C=C/c1ccc2c(c1)OCO2)N[C@@H](Cc1ccccc1)C(=O)Nc1ccc(C(=O)NO)cc1 [drawing 55]	11	85	37	
O=C(/C=C/c1ccccc1)N[C@@H](Cc1ccccc1)C(=O)Nc1ccc(C(=O)NO)cc1 [drawing 59]	10	45	73	
